Experimental data: patent US20140011757A1, “NOVEL MACROLIDE DERIVATIVE” (MEIJI SEIKA PHARMA CO., LTD., priority 2011, published 2014)
In brackets after ≈: the same amount, converted by molar mass. Several values for one entry are separate records, joined by “and”; a condition that tells them apart may be missing. Equal values may be shown once. Read-outs that look alike come from different tables or passages of the source.

Tests used:
A. pleuropneumoniae = experiment: In vitro antibacterial activity, broth microdilution MIC (CLSI M31-A2); assay type: cell-based, Actinobacillus pleuropneumoniae
Description: (§1) Hereinafter, a description is made of an evaluation method for the compound. The compound was measured for its in vitro antibacterial activity by a broth microdilution method in accordance with a CLSI method (formerly NCCLS method, […]-A2) (Performance Standards for Antimicrobial Disk and Dilution Susceptibility Tests for Bacteria Isolated from Animals; Approved Standard-Second Edition NCCLS […]-A2 Vol. 22 No. 6 2002). A medium used was BBL Mueller Hinton II broth supplemented with lysed horse blood and NAD. A test drug solution at each concentration level obtained by dissolving a test drug in ethanol and then diluting the resultant with the liquid medium described above was dispensed into a 96-well microplate, and a test bacterial strain was inoculated. After having been cultured in the presence of 5% CO2 at 37° C. for 20 to 24 hours, the test bacterial strain was visually observed for the presence or absence of its growth. A minimum drug concentration completely inhibiting the growth of the test bacterial strain was defined as a minimum inhibitory concentration (hereinafter, referred to as MIC). The compound obtained in the present invention was measured for its in vitro antibacterial activity by a broth microdilution method in accordance with a CLSI method (formerly NCCLS method, […]-A2) (Performance Standards for Antimicrobial Disk and Dilution Susceptibility Tests for Bacteria Isolated from Animals; Approved Standard-Second Edition NCCLS […]-A2 Vol. 22 No. 6 2002). A medium composition used in the measurement is shown below. […] The resultant test drug solution was further subjected to two-step dilution with the liquid medium described above to prepare a test drug solution at each concentration level. The thus prepared test drug solution at each concentration level was dispensed into a 96-well microplate at 100 μL/well, and a test bacterial strain was inoculated at about 5×10^4 CFU/well. After having been cultured in the presence of 5% CO2 at 37° C. for 20 to 24 hours, the test bacterial strain was visually observed for the presence or absence of its growth. A minimum drug concentration completely inhibiting the growth of the test bacterial strain was defined as a minimum inhibitory concentration (hereinafter, referred to as MIC). […] Saponin was dissolved with purified water. The solution was sterilized and then added to defibrinated horse blood.

[1] = system: main pathogens of bacterial respiratory tract infections in livestock animals such as cattle and swine; assay type: cell-based
H. parasuis = experiment: In vitro antibacterial activity, broth microdilution MIC (CLSI M31-A2); assay type: cell-based, Haemophilus parasuis
Description: as §1

H. somni = experiment: as above; assay type: cell-based, Histophilus somni
Description: as §1

M. haemolytica = experiment: as above; assay type: cell-based, Mannheimia haemolytica
Description: as §1

P. multocida = experiment: as above; assay type: cell-based, Pasteurella multocida
Description: as §1

[2] = Actinobacillus pleuropneumoniae, A. pleuropneumoniae strain 10895-2, read-out: MIC
[3] = Actinobacillus pleuropneumoniae, A. pleuropneumoniae strain 11684-7, read-out: MIC
[4] = Actinobacillus pleuropneumoniae, A. pleuropneumoniae strain 11796-1, read-out: MIC
[5] = Actinobacillus pleuropneumoniae, A. pleuropneumoniae strain 11804-2, read-out: MIC
[6] = Actinobacillus pleuropneumoniae, ATCC27089, A. pleuropneumoniae strain ATCC27089, read-out: MIC
[7] = Glaesserella parasuis, H. parasuis strain 11510-1, read-out: MIC
[8] = Glaesserella parasuis, H. parasuis strain 11640-1, read-out: MIC
[9] = Histophilus somni, H. somni strain 11321, read-out: MIC
[10] = Histophilus somni, H. somni strain 11423-3, read-out: MIC
[11] = Mannheimia haemolytica, M. haemolytica strain 11443, read-out: MIC
[12] = Mannheimia haemolytica, M. haemolytica strain 11467-2, read-out: MIC
[13] = Pasteurella multocida, ATCC43019, P. multocida (bovine) strain ATCC43019, read-out: MIC
[14] = Pasteurella multocida, ATCC43137, P. multocida (swine) strain ATCC43137, read-out: MIC
[15] = Pasteurella multocida, P. multocida (bovine) strain 11272, read-out: MIC
[16] = Pasteurella multocida, P. multocida (bovine) strain 11325-1, read-out: MIC
[17] = Pasteurella multocida, P. multocida (bovine) strain 11787-24, read-out: MIC
[18] = Pasteurella multocida, P. multocida (swine) strain 11587-3, read-out: MIC
[19] = Pasteurella multocida, P. multocida (swine) strain 11745-15, read-out: MIC

Compound	MIC (A. pleuropneumoniae; [2])	MIC (A. pleuropneumoniae; [3])	MIC (A. pleuropneumoniae; [4])	MIC (A. pleuropneumoniae; [5])	MIC (A. pleuropneumoniae; [6])	MIC (H. parasuis; [7])	MIC (H. parasuis; [8])	MIC (H. somni; [9])	MIC (H. somni; [10])	MIC (M. haemolytica; [11])	MIC (M. haemolytica; [12])	MIC (P. multocida; [13])	MIC (P. multocida; [14])	MIC (P. multocida; [15])	MIC (P. multocida; [16])	MIC (P. multocida; [17])	MIC (P. multocida; [18])	MIC (P. multocida; [19])	further results
CO[C@@H]1C(OC2O[C@@H](C)C(O)C(N(C)C)C2O)[C@@H](CC=O)C[C@@H](C)[C@@H](OC(C)=O)/C=C/[C@@H](N(C)CCCc2ccnc3ccccc23)[C@@H](O)C[C@@H](C)OC(=O)C[C@H]1OC(C)=O (stereo partly shown) [Compound of formula (I)]	4 µg/mL	32 µg/mL	4 µg/mL	8 µg/mL	4 µg/mL	0.5 µg/mL	4 µg/mL	0.5 µg/mL	1 µg/mL	4 µg/mL	4 µg/mL	4 µg/mL	4 µg/mL	4 µg/mL	2 µg/mL	4 µg/mL	4 µg/mL	4 µg/mL	MIC corresponding to an activity enhanced as compared to josamycin [1]: approximately 8 fold; MIC corresponding to an activity enhanced as compared to tulathromycin [1]: ≥ 4 fold; antibacterial activities as compared to the existing drugs [1]: remarkably strong antibacterial activities
CO[C@@H]1[C@@H](O[C@@H]2O[C@H](C)[C@@H](O[C@H]3C[C@@](C)(O)[C@@H](OC(=O)CC(C)C)[C@H](C)O3)[C@H](N(C)C)[C@H]2O)[C@@H](CC=O)C[C@@H](C)[C@@H](O)/C=C/C=C/C[C@@H](C)OC(=O)C[C@H]1OC(C)=O [JM, josamycin]	32 µg/mL (≈ 38.6 µM)	64 µg/mL (≈ 77.3 µM)	16 µg/mL (≈ 19.3 µM)	8 µg/mL (≈ 9.66 µM)	16 µg/mL (≈ 19.3 µM)	8 µg/mL (≈ 9.66 µM)	32 µg/mL (≈ 38.6 µM)	2 µg/mL (≈ 2.42 µM)	8 µg/mL (≈ 9.66 µM)	16 µg/mL (≈ 19.3 µM)	32 µg/mL (≈ 38.6 µM)	64 µg/mL (≈ 77.3 µM)	32 µg/mL (≈ 38.6 µM)	16 µg/mL (≈ 19.3 µM)	8 µg/mL (≈ 9.66 µM)	32 µg/mL (≈ 38.6 µM)	32 µg/mL (≈ 38.6 µM)	32 µg/mL (≈ 38.6 µM)	–
CCCNC[C@]1(O)[C@H](C)O[C@@H](O[C@H]2[C@H](C)[C@@H](O[C@@H]3O[C@H](C)C[C@H](N(C)C)[C@H]3O)[C@](C)(O)C[C@@H](C)CN[C@H](C)[C@@H](O)[C@](C)(O)[C@@H](CC)OC(=O)[C@@H]2C)C[C@@]1(C)OC [TLM, tulathromycin]	–	–	–	–	–	–	–	–	–	–	–	–	–	–	–	–	–	–	MIC (A. pleuropneumoniae; A. pleuropneumoniae strain 10895-2): 16 µg/mL (≈ 19.8 µM); MIC (A. pleuropneumoniae; A. pleuropneumoniae strain 11684-7): 64 µg/mL (≈ 79.4 µM); MIC (A. pleuropneumoniae; A. pleuropneumoniae strain 11796-1): 16 µg/mL (≈ 19.8 µM); MIC (A. pleuropneumoniae; A. pleuropneumoniae strain 11804-2): 16 µg/mL (≈ 19.8 µM); MIC (A. pleuropneumoniae; A. pleuropneumoniae strain ATCC27089): 32 µg/mL (≈ 39.7 µM); MIC (H. parasuis; H. parasuis strain 11510-1): 4 µg/mL (≈ 4.96 µM); MIC (H. parasuis; H. parasuis strain 11640-1): 8 µg/mL (≈ 9.92 µM); MIC (H. somni; H. somni strain 11321): 1 µg/mL (≈ 1.24 µM); MIC (H. somni; H. somni strain 11423-3): 1 µg/mL (≈ 1.24 µM); MIC (M. haemolytica; M. haemolytica strain 11443): 16 µg/mL (≈ 19.8 µM); MIC (M. haemolytica; M. haemolytica strain 11467-2): 32 µg/mL (≈ 39.7 µM); MIC (P. multocida; P. multocida (bovine) strain 11272): 16 µg/mL (≈ 19.8 µM); MIC (P. multocida; P. multocida (bovine) strain 11325-1): 4 µg/mL (≈ 4.96 µM); MIC (P. multocida; P. multocida (bovine) strain 11787-24): 8 µg/mL (≈ 9.92 µM); MIC (P. multocida; P. multocida (bovine) strain ATCC43019): 16 µg/mL (≈ 19.8 µM); MIC (P. multocida; P. multocida (swine) strain 11587-3): 16 µg/mL (≈ 19.8 µM); MIC (P. multocida; P. multocida (swine) strain 11745-15): 8 µg/mL (≈ 9.92 µM); MIC (P. multocida; P. multocida (swine) strain ATCC43137): 16 µg/mL (≈ 19.8 µM)
CC[C@H]1OC(=O)C[C@@H](O)[C@H](C)[C@@H](O[C@@H]2O[C@H](C)[C@@H](O)[C@H](N(C)C)[C@H]2O)[C@@H](CCN2C[C@H](C)C[C@H](C)C2)C[C@@H](C)C(=O)/C=C/C(C)=C/[C@@H]1CO[C@@H]1O[C@H](C)[C@@H](O)[C@@H](OC)[C@H]1OC [TMS, tilmicosin]	16 µg/mL (≈ 18.4 µM)	128 µg/mL (≈ 147 µM)	16 µg/mL (≈ 18.4 µM)	16 µg/mL (≈ 18.4 µM)	16 µg/mL (≈ 18.4 µM)	1 µg/mL (≈ 1.15 µM)	16 µg/mL (≈ 18.4 µM)	1 µg/mL (≈ 1.15 µM)	4 µg/mL (≈ 4.6 µM)	16 µg/mL (≈ 18.4 µM)	8 µg/mL (≈ 9.2 µM)	32 µg/mL (≈ 36.8 µM)	16 µg/mL (≈ 18.4 µM)	32 µg/mL (≈ 36.8 µM)	16 µg/mL (≈ 18.4 µM)	16 µg/mL (≈ 18.4 µM)	16 µg/mL (≈ 18.4 µM)	16 µg/mL (≈ 18.4 µM)	–
CC[C@H]1OC(=O)C[C@@H](O)[C@H](C)[C@@H](O[C@@H]2O[C@H](C)[C@@H](O[C@H]3C[C@@](C)(O)[C@@H](O)[C@H](C)O3)[C@H](N(C)C)[C@H]2O)[C@@H](CC=O)C[C@@H](C)C(=O)/C=C/C(C)=C/[C@@H]1CO[C@@H]1O[C@H](C)[C@@H](O)[C@@H](OC)[C@H]1OC [TS, tylosin]	16 µg/mL (≈ 17.5 µM)	256 µg/mL (≈ 279 µM)	32 µg/mL (≈ 34.9 µM)	32 µg/mL (≈ 34.9 µM)	32 µg/mL (≈ 34.9 µM)	4 µg/mL (≈ 4.37 µM)	8 µg/mL (≈ 8.73 µM)	1 µg/mL (≈ 1.09 µM)	4 µg/mL (≈ 4.37 µM)	16 µg/mL (≈ 17.5 µM)	128 µg/mL (≈ 140 µM)	64 µg/mL (≈ 69.9 µM)	64 µg/mL (≈ 69.9 µM)	64 µg/mL (≈ 69.9 µM)	16 µg/mL (≈ 17.5 µM)	32 µg/mL (≈ 34.9 µM)	64 µg/mL (≈ 69.9 µM)	64 µg/mL (≈ 69.9 µM)	–
aivlosin	–	–	–	–	–	–	–	–	–	–	–	–	–	–	–	–	–	–	MIC (A. pleuropneumoniae): 32 µg/mL and 64 µg/mL; MIC (H. parasuis): 16 µg/mL and 32 µg/mL; MIC (M. haemolytica): 32 µg/mL and 64 µg/mL; MIC (P. multocida): 256 µg/mL and 128 µg/mL
